{
  "source": "paper PMC12703428",
  "about": "“Development of Granzyme A Turn‐ON Fluorescent Activity‐Based Probes” (Chembiochem, 2025)",
  "key": {"[1]": {"system": "NK‐92 cells", "test": "Flow cytometry analysis of protein labeling in NK-92 and MDA-MB-231 cells", "format": "cell-based, human", "conditions": "2 h, 37 °C", "experimental": "Figure 4 Characterization of qABPs in native proteomes. A) Labeling of GzmA by 5 and 6 in lysates of various cell lines (1 h, 37 °C). B) Stability of 5 and 6 in buffer and cell media (11 h, 37 °C). The hydrolysis of probes was measured by monitoring the production of Cy5 fluorescence signal over time. […] C) Labeling of GzmA by probes 3 -6 in NK-92 cells (2 h, 37 °C). D) Flow cytometry analysis of protein labeling in NK-92 cells by 3 -5. […] E) Flow cytometry analysis of concentration-dependent GzmA labeling in NK-92 cells and S/N of 5 (5 μM, 2 h, 37 °C). […] F) Flow cytometry analysis of protein labeling by 5 in MDA-MB-231 cells co-cultured with NK-92 cells (see Supporting Information for conditions)."}, "[2]": {"system": "MDA‐MB‐231 cells co‐cultured with NK‐92 cells", "test": "GzmA transfer in NK-92 / MDA-MB-231 coculture", "format": "cell-based, human", "conditions": "5x10^5 MDA-MB-231 with 2x10^6 NK-92 cells, probe 5 μM, 1-6 h, flow cytometry and gel-based analyses", "experimental": "Figure 4 Characterization of qABPs in native proteomes. A) Labeling of GzmA by 5 and 6 in lysates of various cell lines (1 h, 37 °C). B) Stability of 5 and 6 in buffer and cell media (11 h, 37 °C). The hydrolysis of probes was measured by monitoring the production of Cy5 fluorescence signal over time. […] C) Labeling of GzmA by probes 3 –6 in NK‐92 cells (2 h, 37 °C). D) Flow cytometry analysis of protein labeling in NK‐92 cells by 3 –5. […] E) Flow cytometry analysis of concentration‐dependent GzmA labeling in NK‐92 cells and S/N of 5 (5 μM, 2 h, 37 °C). […]\nSupplementary Figure 5. […] Protein samples were analyzed by SDS-PAGE and in-gel fluorescence scanning for Cy5 signal. […]\nConditions for Figure 4C: Various concentrations of probes 3-6 were incubated with 1x10^6 NK-92 cells for 2 h at 37 °C in a humidified incubator. […] Lysates were collected, protein concentration was measured with PIERCE BCA protein assay and samples were analyzed with in-gel fluorescence and GzmA western blotting. […]\nAll flow cytometry data were collected on BD LSRFortessa and FACSymphony A5 Cell Analyzers and analyzed with FlowJo software. […] Fixed/Permeabilized cells were then resuspended in appropriate amounts of cell staining buffer (BioLegend #420201) and analyzed with flow cytometry and FlowJo software. […]"}},
  "note": "Where “and” joins values, the source holds several entries; their conditions need not be identical. Equal values may be shown once.",
  "data": [
    {"substance": "IGNR [compound 5]", "values": [
      {"measurement": "Cell permeability by flow cytometry (Cy5 signal in NK-92 cells)", "setting": "[1]; 1x10^6 NK-92 cells, fixed/permeabilized, mean ± SD n = 3", "value": "clear Cy5 signal"},
      {"measurement": "Concentration dependence of protein labeling in NK-92 cells (flow cytometry)", "setting": "[1]; NK-92 cells, n = 3", "value": "concentration‐dependent protein labeling"},
      {"measurement": "S/N ratio (mean fluorescence intensity, intact NK-92 versus MDA-MB-231 cells)", "setting": "[1]; probe 5 μM, flow cytometry, n = 3", "value": "≈ 4 and 4"},
      {"measurement": "Detection of GzmA transfer from NK-92 cells to MDA-MB-231 cells", "setting": "[2]", "value": "able to detect GzmA transfer"}
    ]}
  ]
}
